A short description of series [1]: Tolerability of 5-FU infusion via Alzet pumps. The format is in vivo, mouse. As to conditions: 13 mg/kg/hour via Alzet pumps; unacceptably toxic.
The subject of series [2] is subventricular zone (SVZ) of Prom1^+/C-L mice. Kind of series: In vivo NSC toxicity: ApoTag, DCX and LacZ. As to conditions: for number of Prom1^+ cells in the SVZ / number of apoptotic cells in the SVZ: ±SEM; for number of apoptotic cells in the SVZ: ApoTag.
A short description of series [3]: 5-FU pharmacokinetics, tumor microdialysis and plasma. It counts as in vivo, mouse.
The subject of series [4] is mEP^Ephb2-LUC brain tumors. Kind of series: Orthotopic allograft efficacy study, bioluminescence and survival. It counts as in vivo, mouse. As to conditions: for survival of mice harbouring mEP^Ephb2-LUC tumors / rate of mEP^Ephb2-LUC tumor growth: 5-FU 75 mg/kg i.v. once weekly, bortezomib 0.8 mg/kg i.v. twice weekly; for rate of mEP^Ephb2-LUC tumor growth: bioluminescence.

Series [5] has as its system mEP^Ephb2, mBT^NICD1, NSC^wt and NSC^null cells. It counts as cell-based, mouse. Particulars: for cell-selective activity class in HTS: class from average EC50 in each of four cell types, secondary screen.
A further series has as its system mEP^Ephb2 cells. The series is described as follows: HTS activity against ependymoma cells. The format is cell-based, mouse. Particulars: result in words.
The test system of the next series is IGF1R. The series is described as follows: Western blot of IGF1R signalling in mEP^Ephb2 cells stimulated with IGF2. The format is cell-based, mouse. (Immunoblotting shows a protein as a band on a membrane.)

Molecules are shown by their SMILES.

In the case of `O=c1[nH]cc(F)c(=O)[nH]1` [5-FU, 5-fluorouracil], the weight loss in series [1] is reported as at least 20%. Moreover, in series [2] (four weeks of therapy), the “DCX^+ labelling in the SVZ” value is on record as “returned to control levels” and the “apoptotic labelling in the SVZ” value is given as “returned to control levels”. In series [2] (two weeks of therapy), the “area of DCX^+ neuroblast rests in the SVZ” value was 2.2 μm^2 per μm ventricular surfac, the “number of Prom1^+ cells in the SVZ” value stood at 35.1% and the “number of apoptotic cells in the SVZ” value is recorded as 12.0±1.7. Also, in series [3] (13 mg/kg/hour via Alzet pumps, ~10 μM), the “time the tumor concentration was maintained” value is recorded as “over 24 hours”. Moreover, the “time brain tumor concentration remained above 10μM” value in series [3] (intravenous bolus 75 mg/kg) was “approximately 1 hour”. Besides, the “peak concentration in brain tumors” value in series [3] (intravenous bolus 75 mg/kg, microdialysis, ±79 S.D.) was determined as 800 µM. For the same molecule, the tumor drug levels result in series [3] (subcutaneous infusion 1.03 mg/kg/hour) is “failed to generate detectable tumor drug levels”. In series [4], the “survival of mice harbouring mEP^Ephb2-LUC tumors” value is recorded as “significantly prolonged” and the “rate of mEP^Ephb2-LUC tumor growth” value was “halved”. Moreover, the “activity against mEP^Ephb2-LUC brain tumors” value in series [4] (delivered subcutaneously via Alzet pumps) was “inactive”.
On to `CC[C@@]1(O)C(=O)OCc2c1cc1n(c2=O)Cc2cc3c(CN(C)C)c(O)ccc3nc2-1` [topotecan], for which the 50% effective concentration (EC50) in series [5] (Mus musculus, 96 h) lay within 200 to 700 nM. In series [5], the “cell-selective activity class in HTS” value is “equipotent”.
`N.N.O=C([O-])C1(C(=O)[O-])CCC1.[Pt+2]` [carboplatin]: the “activity against mEP^Ephb2 cells in HTS” value in the series with mEP^Ephb2 cells is listed as “Neither carboplatin nor irinotecan were active”.
Still for that read-out and setting: next, `CS(=O)(=O)CCNCc1ccc(-c2ccc3ncnc(Nc4ccc(OCc5cccc(F)c5)c(Cl)c4)c3c2)o1` [lapatinib]: “inactive”; `CCc1c2c(nc3ccc(OC(=O)N4CCC(N5CCCCC5)CC4)cc13)-c1cc3c(c(=O)n1C2)COC(=O)[C@]3(O)CC` [irinotecan]: “Neither carboplatin nor irinotecan were active”.
For the molecule `C/C=C(\C)C(=O)O[C@H]1[C@H](OC(C)=O)[C@@]2(CO)C(CC1(C)C)C1=CC[C@@H]3[C@@]4(C)CC[C@H](O[C@@H]5O[C@H](C(=O)O)[C@@H](O[C@@H]6O[C@H](CO)[C@@H](O)[C@H](O)[C@H]6O)[C@H](O)[C@H]5O[C@@H]5O[C@H](CO)[C@@H](O)[C@H](O)[C@H]5O)[C@H](CO)C4CC[C@@]3(C)[C@@]1(C)C[C@H]2O` (stereo partly drawn) [beta-escin], the “cell-selective activity class in HTS” value in series [5] was “ependymoma selective”.
Regarding `COc1cc2c(cc1Nc1nc(Nc3ccsc3C(N)=O)c3cc[nH]c3n1)N(C(=O)CN(C)C)CCC2` [GSK2110236A], the “activity against mEP^Ephb2 cells in HTS” value in the series on mEP^Ephb2 cells is recorded as “potent inhibitor”. Besides, the “IGF1R and its downstream signal” value in the series on IGF1R is recorded as “blocked”.
In the case of `CC(C)C[C@H](NC(=O)[C@H](Cc1ccccc1)NC(=O)c1cnccn1)B(O)O` [bortezomib], in series [2] (four weeks of therapy), the “DCX^+ labelling in the SVZ” value was “returned to control levels”, the “Prom1^+ cell numbers in the SVZ relative to controls” value is reported as over 2.5 times, the “apoptotic labelling in the SVZ” value is on record as “returned to control levels” and the “number of Prom1^+ cells in the SVZ” value amounted to 57.8%. Also, in series [2] (two weeks of therapy), the “area of DCX^+ neuroblast rests in the SVZ” value is recorded as 6.0 μm^2 per μm ventricular surfac, the “number of Prom1^+ cells in the SVZ” value turned out to be 39.2% and the “number of apoptotic cells in the SVZ” value amounted to 22.2±5.1. Moreover, the “activity against mEP^Ephb2 cells in HTS” value in the series on mEP^Ephb2 cells is listed as “highly potent”. Besides, in series [4], the “survival of mice harbouring mEP^Ephb2-LUC tumors” value was “significantly prolonged” and the “rate of mEP^Ephb2-LUC tumor growth” value is reported as “halved”.

By EC50 is commonly meant the concentration at which the effect is half-maximal.

For the origin of these results see article PMC3172881 (Cancer cell, 2011).
